Experimental data from article PMC5051865, “The Effect of Albumin on MRP2 and BCRP in the Vesicular Transport Assay” (PLoS ONE, 2016).
pIC50: −log10 of the molar value. Read-outs that look alike come from different tables or passages of the source.

Columns and labels:
[1] = target: T1, bovine serum albumin (BSA) (Bos taurus, UniProt P02769); assay: Substrate binding to BSA, rapid equilibrium dialysis (RED); assay type: in vitro ADME; conditions: for fu (± SD): 37°C, 7 h, n = 3
T1 construct: purchased Sigma-Aldrich (St. Louis, MO)
T1 sequence (P02769 25-607): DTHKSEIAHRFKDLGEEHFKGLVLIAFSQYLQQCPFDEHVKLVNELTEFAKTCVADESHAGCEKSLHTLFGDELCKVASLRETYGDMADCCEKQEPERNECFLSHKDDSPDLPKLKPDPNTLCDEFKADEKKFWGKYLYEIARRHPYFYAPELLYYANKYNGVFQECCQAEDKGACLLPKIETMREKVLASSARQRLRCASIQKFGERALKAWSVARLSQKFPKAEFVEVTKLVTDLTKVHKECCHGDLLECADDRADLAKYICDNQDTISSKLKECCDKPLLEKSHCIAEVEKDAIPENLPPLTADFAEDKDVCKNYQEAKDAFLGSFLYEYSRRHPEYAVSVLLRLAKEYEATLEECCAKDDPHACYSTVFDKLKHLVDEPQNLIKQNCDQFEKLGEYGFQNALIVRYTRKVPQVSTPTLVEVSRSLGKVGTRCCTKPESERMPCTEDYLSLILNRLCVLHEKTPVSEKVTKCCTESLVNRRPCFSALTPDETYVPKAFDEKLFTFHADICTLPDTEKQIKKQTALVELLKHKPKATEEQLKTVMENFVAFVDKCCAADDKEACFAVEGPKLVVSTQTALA
Source text: The fraction of unbound substrate in the presence of BSA was studied with the rapid equilibrium dialysis (RED) device (Thermo Scientific, Waltham, MA). In the RED system, two chambers in a well are separated with dialysis membrane. The transporter substrate (CDCF, E217βG or LY) was placed in the donor chamber in assay buffer with control membrane vesicles in the presence or absence of BSA to mimic the VT assay conditions. The final concentrations of BSA was 0.1% or 1.0%. Plain assay buffer was pipetted into the receiver chambers of all wells until the liquid level of both chambers was equal. […] Samples were incubated at 37°C on an orbital shaker. After 7 hour incubation, a small aliquot was collected from each receiver chamber for analysis. The relative fraction of unbound substrate (fu) was calculated as the ratio of concentrations in the receiver chambers from the samples with and without BSA.
Acetonitrile and phosphate buffers were used as mobile phase and flow rate was 0.5 ml/min.

human MRP2 [2] = target: T2, human MRP2 (Homo sapiens, UniProt Q92887)
T2 sequence (Q92887 whole entry): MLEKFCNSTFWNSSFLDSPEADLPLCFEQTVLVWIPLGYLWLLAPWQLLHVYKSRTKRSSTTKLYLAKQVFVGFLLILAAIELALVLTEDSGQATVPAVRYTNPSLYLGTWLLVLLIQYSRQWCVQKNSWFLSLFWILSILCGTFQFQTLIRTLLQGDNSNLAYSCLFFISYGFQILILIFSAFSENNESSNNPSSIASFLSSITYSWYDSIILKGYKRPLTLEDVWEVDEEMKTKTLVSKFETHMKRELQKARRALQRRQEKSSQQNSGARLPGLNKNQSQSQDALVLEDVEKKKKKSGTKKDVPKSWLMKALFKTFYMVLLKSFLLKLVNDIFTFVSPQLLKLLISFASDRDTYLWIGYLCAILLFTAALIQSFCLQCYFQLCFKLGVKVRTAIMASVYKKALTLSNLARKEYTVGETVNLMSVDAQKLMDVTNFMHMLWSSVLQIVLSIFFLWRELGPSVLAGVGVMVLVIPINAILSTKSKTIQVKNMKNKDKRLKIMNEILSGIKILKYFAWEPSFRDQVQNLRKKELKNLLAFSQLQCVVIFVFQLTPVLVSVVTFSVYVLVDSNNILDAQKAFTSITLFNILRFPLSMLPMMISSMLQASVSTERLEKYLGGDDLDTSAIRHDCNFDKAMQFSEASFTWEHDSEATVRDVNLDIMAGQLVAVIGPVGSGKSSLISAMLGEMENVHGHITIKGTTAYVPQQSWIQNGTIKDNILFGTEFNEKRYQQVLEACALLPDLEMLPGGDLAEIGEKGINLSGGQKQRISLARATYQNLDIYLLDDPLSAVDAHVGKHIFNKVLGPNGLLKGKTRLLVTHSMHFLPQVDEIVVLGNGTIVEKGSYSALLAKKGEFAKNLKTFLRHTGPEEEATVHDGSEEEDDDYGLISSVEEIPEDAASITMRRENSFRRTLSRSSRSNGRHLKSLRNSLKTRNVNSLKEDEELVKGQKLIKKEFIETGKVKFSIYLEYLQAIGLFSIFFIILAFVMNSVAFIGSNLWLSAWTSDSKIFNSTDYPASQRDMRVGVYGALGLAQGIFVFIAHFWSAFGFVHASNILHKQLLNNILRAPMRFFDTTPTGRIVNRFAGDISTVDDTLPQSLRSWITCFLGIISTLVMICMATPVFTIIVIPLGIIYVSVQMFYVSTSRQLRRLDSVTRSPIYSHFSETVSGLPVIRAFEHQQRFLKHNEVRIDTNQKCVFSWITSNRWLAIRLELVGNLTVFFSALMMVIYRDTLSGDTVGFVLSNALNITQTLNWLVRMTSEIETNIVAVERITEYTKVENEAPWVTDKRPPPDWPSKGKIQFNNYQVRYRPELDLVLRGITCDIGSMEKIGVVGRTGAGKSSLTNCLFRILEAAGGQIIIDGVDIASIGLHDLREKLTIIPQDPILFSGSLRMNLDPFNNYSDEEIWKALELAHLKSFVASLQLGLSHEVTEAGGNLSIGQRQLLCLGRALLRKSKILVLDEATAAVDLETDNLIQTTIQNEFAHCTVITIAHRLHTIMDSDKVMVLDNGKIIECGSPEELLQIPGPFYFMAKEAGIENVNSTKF
Source text: v=Vmax[S]^h/Km^h+[S]^h (2)

UGT2A1 = test system: UGT2A1; set-up: method as in PMID 23372764; conditions: cited from earlier work
UGT1A7 = test system: UGT1A7; set-up: method as in PMID 23372764; conditions: cited from earlier work
UGT2B7 = conditions: cited from earlier work
human BCRP [3] = target: T3, human BCRP (Homo sapiens, UniProt Q9UNQ0); assay: Inhibition of LY uptake into BCRP vesicles by oleic acid (VT assay)
T3 sequence (Q9UNQ0 1-655): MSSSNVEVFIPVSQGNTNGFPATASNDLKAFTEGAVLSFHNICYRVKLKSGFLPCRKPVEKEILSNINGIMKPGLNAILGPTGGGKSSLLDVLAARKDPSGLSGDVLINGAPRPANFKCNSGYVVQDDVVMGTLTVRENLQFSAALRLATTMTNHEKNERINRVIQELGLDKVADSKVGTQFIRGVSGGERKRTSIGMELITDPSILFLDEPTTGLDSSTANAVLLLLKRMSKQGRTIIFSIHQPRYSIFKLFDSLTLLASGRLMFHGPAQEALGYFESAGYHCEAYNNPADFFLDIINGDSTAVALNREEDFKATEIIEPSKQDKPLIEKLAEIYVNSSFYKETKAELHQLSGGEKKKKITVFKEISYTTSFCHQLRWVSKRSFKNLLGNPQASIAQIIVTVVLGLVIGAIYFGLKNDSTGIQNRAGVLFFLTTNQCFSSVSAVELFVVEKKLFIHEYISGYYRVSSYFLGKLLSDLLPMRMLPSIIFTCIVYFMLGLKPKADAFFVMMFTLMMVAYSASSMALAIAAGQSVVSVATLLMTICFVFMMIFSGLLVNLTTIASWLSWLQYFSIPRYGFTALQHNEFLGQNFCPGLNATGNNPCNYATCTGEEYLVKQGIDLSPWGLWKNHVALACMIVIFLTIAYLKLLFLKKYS
Procedure: (§1) The modulation of MRP2 and BCRP uptake by fatty acid oleic acid was also studied with the VT assay. The assay was performed as above, but oleic acid was present at various concentrations. The probe concentration in these studies was 5 μM for CDCF and 50 μM for LY. Plain vehicle (70% ethanol) was used as a control.
(§2) The oleic acid concentration required for 50% inhibition (IC50), was calculated from the concentration-response data using four parameter logistic regression, Response=Responsemin+Responsemax−Responsemin/1+([I]/IC50)^h (3) where response is the control normalized ATP-dependent uptake (%), Responsemin and Responsemax represent the plateaus corresponding to minimal and maximal normalized uptake (%), [I] is the concentration of inhibitor (μM), IC50 is the inhibitor concentration required for a response half-way between minimal and maximal response (μM) and h is the Hill coefficient. The Responsemin term was constrained to be larger than zero, where zero indicates full abolishment of uptake.

BCRP [4] = test system: BCRP; set-up: method as in PMID 22819932; conditions: Caco-2 cells, oleic acid > 1 mM; cited from earlier work
BCRP [5] = test system: BCRP; set-up: method as in PMID 24342797; conditions: sandwich-cultured hepatocytes, oleic acid > 1 mM; cited from earlier work
human MRP2 [6] = target: T2, human MRP2; assay: Inhibition of CDCF uptake into MRP2 vesicles by oleic acid (VT assay); conditions: 5 μM CDCF
Procedure: as §1, §2

[7] = test system: CYPs, human liver microsomes; set-up: method as in PMID 18256202, PMID 21305272; conditions: cited from earlier work
human BCRP [8] = target: T3, human BCRP; conditions: BCRP vesicles; for increase in maximal LY uptake by BCRP: 0.1% BSA vs no BSA; for Km: cholesterol loaded, best fit value (± standard error)
Procedure: Sf9 cells were cultured in suspension in HyQ SFX-Insect MP medium (Thermo Fisher Scientific, Waltham, MA) supplemented with 5% fetal bovine serum. Cells were infected with recombinant baculovirus-DNA and harvested and washed with phosphate buffered saline (PBS) approximately 60 hours after infection. Membranes were prepared from the cells using a modification of the Chu et al. [30] method as described in detail in [29]. To form the vesicles, the suspension was passed 10 times through a LIPEX™ Extruder (Northern Lipids Inc., Burnaby, BC, Canada) or 20 times through a 27 gauge needle. Protein concentration was measured using the Bio-Rad protein assay (Bio-Rad Laboratories Inc., Hercules, CA). Vesicles were stored at -75°C at protein concentrations of 3.5–5 mg/ml.
To improve the dynamic range of the assay, BCRP membranes were loaded with cholesterol similarly to Telbisz et al. [31], by incubating the membranes on ice for 20 minutes in the presence of the water-soluble cholesterol complex at a total concentration of 2.5 mM cholesterol. Excess of the complex was removed by diluting the mixture and centrifugation at 100 000 g at + 4°C for 1 h 15 min. The remaining membrane pellet was resuspended in membrane buffer (50 mM Tris–HCl pH 7.0, 50 mM mannitol, 2 mM EGTA). The resulting cholesterol concentration in the vesicles was roughly 100 μg/mg total protein as measured using the Amplex Red Cholesterol kit (Life Technologies, Carlsbad, CA).
The assay was carried out as a modification of the PREDIVEZ™ Vesicular Transport Kit protocol (SOLVO Biotechnology, Szeged, Hungary). In short, vesicle stocks were thawed and diluted with assay buffer (40 mM MOPS–Tris pH 7.0, 60 mM KCl, 6 mM MgCl2). The substrate at various concentrations was added subsequently with 0.1% or 1.0% BSA (w/v), or an equivalent volume of deionized water for the control. […] The well plate was preincubated at 37°C for 5–10 minutes after which half of the samples were treated with prewarmed plain assay buffer (non-ATP control), and the other half with prewarmed Mg-ATP-solution (final concentration 4 mM). […] Transport was terminated with ice cold washing buffer (40 mM MOPS-Tris pH 7.0 and 70 mM KCl). Samples were quickly transferred to the MultiScreenHTS-FB Plate Glass fiber 1.0 μm / 0.65 μm Durapore filter plate (Millipore, Molsheim, France). Wells were immediately washed five times with 200 μl washing buffer and dried. 0.1 M sodium hydroxide was used to elute LY and CDCF, which were detected by fluorescence measurement.
ATP-dependent transport was calculated as the difference between uptake in the presence and absence of ATP. All assays were performed in triplicates on a 96-well plate. Curve fitting to the data was performed with GraphPad Prism 6.04 (GraphPad Software Inc., La Jolla, CA). Substrate data was fitted with the Michaelis-Menten equation v=Vmax[S]/Km+[S] (1) where v is the velocity of ATP-dependent transport, Vmax is the maximal transport velocity, [S] is the substrate concentration and Km is the Michaelis-Menten constant.

[9] = MRP2 vesicles, 0.1% BSA vs no BSA

5(6)-carboxy-2’,7’-dichlorofluorescein [CDCF]
average fu ([1]; 0.1% BSA, average over concentrations): 0.94 | fu (± SD) ([1]; 0.1% BSA, substrate 1 μM): 0.92 (± 0.02) | fu (± SD) ([1]; 0.1% BSA, substrate 5 μM): 0.94 (± 0.02) | fu (± SD) ([1]; 0.1% BSA, substrate 50 μM): 0.96 (± 0.01) | fu (± SD) ([1]; 1.0% BSA, substrate 5 μM): 0.43 (± 0.02) | fu (± SD) ([1]; 1.0% BSA, substrate 50 μM): 0.53 (± 0.02) | fu (± SD) ([1]; 1.0% BSA, substrate 200 μM): 0.73 (± 0.03) | increase of Vmax of uptake into MRP2 vesicles (human MRP2 [2]; 0.1% BSA vs no BSA): 2 fold | increase of Km by BSA (human MRP2 [2]; [9]): ~63% | increase of Vmax by BSA (human MRP2 [2]; [9]): roughly 110% | Vmax in the presence of 0.1% BSA (human MRP2 [2]; MRP2 vesicles, Vmax in the absence of BSA set at 100%): 210.4 (± 21.1) %

Oc1ccc2cc[nH]c2c1 [6-hydroxyindole]
decrease in Km caused by albumin (UGT2A1): > 20 fold

C[C@]12CC[C@@H]3c4ccc(O)cc4CC[C@H]3[C@@H]1CC[C@@H]2O[C@@H]1O[C@H](C(=O)O)[C@@H](O)[C@H](O)[C@H]1O [E217βG]
fu (± SD) ([1]; 0.1% BSA, substrate 15 μM): 0.96 (± 0.04) | fu (± SD) ([1]; 0.1% BSA, substrate 50 μM): 1.00 (± 0.03) | fu (± SD) ([1]; 0.1% BSA, substrate 150 μM): 0.98 (± 0.04) | increase of Km by BSA (human MRP2 [2]; [9]): 36%

CCN(CC)C(=O)/C(C#N)=C/c1cc(O)c(O)c([N+](=O)[O-])c1 [entacapone]
increase in Vmax caused by albumin (UGT1A7): up to 7 fold

Nc1nnc(-c2cccc(Cl)c2Cl)c(N)n1 [lamotrigine]
increase in affinity caused by albumin (UGT2B7): 7 fold

CCCCCCCC/C=C\CCCCCCCC(=O)O [oleic acid]
pIC50 (human BCRP [3]): 4.55 | effect on BCRP-mediated transport of mitoxantrone (BCRP [4]): decrease BCRP-mediated transport of mitoxantrone | effect on BCRP-mediated transport of rosuvastatin (BCRP [5]): decrease BCRP-mediated transport | effect on substrate uptake (human MRP2 [6]): decreased the uptake of substrates

CC(=O)O[C@H]1C(=O)[C@@]2(C)[C@H]([C@H](OC(=O)c3ccccc3)[C@]3(O)C[C@H](OC(=O)[C@H](O)[C@@H](NC(=O)c4ccccc4)c4ccccc4)C(C)=C1C3(C)C)[C@]1(OC(C)=O)CO[C@@H]1C[C@@H]2O [paclitaxel]
decrease in Km of hydroxylation caused by albumin [7]: 3 fold

O=C1NC(=O)C(c2ccccc2)(c2ccccc2)N1 [phenytoin]
decrease in Km of hydroxylation caused by albumin [7]: 4 fold

Cc1cn([C@H]2C[C@H](N=[N+]=[N-])[C@@H](CO)O2)c(=O)[nH]c1=O [zidovudine]
increase in affinity caused by albumin (UGT2B7): 10 fold

Lucifer yellow [LY]
fu (± SD) ([1]; 0.1% BSA, substrate 20 μM): 0.98 (± 0.01) | fu (± SD) ([1]; 0.1% BSA, substrate 200 μM): 0.98 (± 0.03) | increase in maximal LY uptake by BCRP (human BCRP [8]): 28% | increase in maximal LY uptake by BCRP (human BCRP [8]; listed as Lucifer yellow): 30% | Vmax in the presence of 0.1% BSA (human BCRP [8]; Vmax in the absence of BSA set at 100%): 127.5 (± 6.2) % | Km (human BCRP [8]; read-out: Km with 0.1% BSA, 0.1% BSA): 33.5 µM | Km (human BCRP [8]; read-out: Km without BSA): 31.2 µM
